Laboratory results from patent US10538497B2, “Compounds as indoleamine 2,3-dioxygenase inhibitors” (Merck Sharp & Dohme Corp., priority 2015, dated 2020).
pIC50: −log10 of the molar value.

Columns and labels:
IDO1 [1] = molecular target: T1, IDO1 (Homo sapiens (Human), UniProt P14902); assay: IDO1 Human Whole Blood Assay; type: cell-based; details: LPS and IFNγ 100 ng/mL, kynurenine by LC/MS/MS
Experimental: IDO1 Human Whole Blood Assay
LPS and IFNγ was prepared in RPMI to a 10× of final conc. (1000 ng/mL), final concentration is 100 ng/mL.
Human whole blood was drawn in sodium heparin coated tubes from healthy internal donors. Two hundred fourty μL of blood was transferred to each of the wells of a v-bottom 96 well plate. Thirty μL of compound was transferred from intermediate dilution plate, and incubated for 15 min. […] from stimulants was then transferred to blood and mixed thoroughly. Plate was covered with breathable membrane and incubated at 37° C. for overnight (18 h).
On day 2 isotope labeled standard of kunurenine and tryptophan was made in water at 10× concentration and 30 μL was added to the blood at 3 μM final concentration. The assay plates were centrifuged at 300×G for 10 min with no brake to separate plasma from red blood cells. Sixty μL of plasma samples was removed without disturbing red blood cells. Plasma was diluted with RPMI in 1:1 ratio and proteins were precipitated out with two volume of Acetonitrile. The plates was centrifuged at 4000×G for 60 min. Twenty μL of supernatant was carefully transferred to a 384 well plate contain 40 μL of 0.1% formic acid in water and analysed by LC/MS/MS.
LC/MS/MS analyses were performed using Thermo Fisher's LX4-TSQ Quantum Ultra system. This system consists of four Agilent binary high-performance liquid chromatography (HPLC) pumps and a TSQ Quantum Ultra triple quadrupole MS/MS instrument. For each sample, 5 μL were injected onto an Atlantis T3 column column (2.1 mm×150 mm, 3 μm particle size) from Waters. The mobile phase gradient pumped at 0.8 mL/min was used to elute the analytes from the column at 25° C. The elution started at 0% B increasing linearly to 25% B at 6.5 min, holding at 25% for 1 min, re-equilibrating to 10 min. Mobile phase A consisted of 0.1% formic acid in water. Mobile phase B consisted of 0.1% of formic acid in acetonitrile. Data was acquired in positive mode using a HESI interface. The operational parameters for the TSQ Quantum Ultra instrument were a spray voltage of 4000 V, capillary temperature of 380° C., vaporizer temperature 400° C., shealth gas 60 arbitrary units, Aux gas 20 arbitrary units, tube lens 85 and collision gas 1.2 mTorr. SRM chromatograms of kynurenine (Q1: 209.2>Q3:94.0) and internal standard (Q1: 215.3>Q3:98.2) were collected for 90 sec. The peak area was integrated by Xcalibur Quan software. The ratios between the kynurenine generated in the reaction and 2D6-Kynurenine spiked-in internal standard were used to generate percentage inhibition and IC50 values. Compounds were titrated and IC50's were calculated by 4 parameter sigmoidal curve fitting formula.

IDO1 [2] = molecular target: T1, IDO1; assay: IDO1 Enzyme Assay; details: read-out: IDO1 Enzyme Assay, IC50; HIS-tagged recombinant IDO1, 40 nM
IDO1 [3] = molecular target: T1, IDO1; assay: IDO1 Cellular Assay in Hela Cells Stimulated with IFNγ; type: cell-based; details: Hela cells stimulated with IFNγ 100 ng/mL; read-out: IDO1 HELA Cell Assay, IC50
IDO1 [4] = molecular target: T1, IDO1; assay: IDO1 Cellular Assay in Frozen HEK293 Cells Transiently Transfected with Human IDO1; type: cell-based; details: HEK293 cells transiently transfected with human IDO1; read-out: IDO1 HEK293 Cell Assay, IC50

T1 sequence (P14902 whole entry): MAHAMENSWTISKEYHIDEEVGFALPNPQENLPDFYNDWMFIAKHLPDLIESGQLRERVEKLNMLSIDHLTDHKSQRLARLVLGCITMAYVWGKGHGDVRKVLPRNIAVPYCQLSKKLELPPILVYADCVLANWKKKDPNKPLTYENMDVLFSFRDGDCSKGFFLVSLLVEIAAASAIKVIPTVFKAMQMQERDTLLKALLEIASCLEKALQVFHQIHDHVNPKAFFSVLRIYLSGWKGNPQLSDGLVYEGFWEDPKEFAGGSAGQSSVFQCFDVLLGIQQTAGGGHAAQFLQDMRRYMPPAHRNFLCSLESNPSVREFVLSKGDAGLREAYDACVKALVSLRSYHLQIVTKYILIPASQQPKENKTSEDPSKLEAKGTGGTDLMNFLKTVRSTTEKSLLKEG

pIC50 (IDO1 [1])	pIC50 (IDO1 [2])	pIC50 (IDO1 [3])	pIC50 (IDO1 [4])	SMILES
6.18	6.96	6.92	7.51	CS(=O)(=O)NCCSc1nonc1/C(=N/O)Nc1ccc(F)c(C#N)c1 [Example 171, N-(3-cyano-4-fluorophenyl)-N′-hydroxy-4-({2-[(methylsulfonyl)amino]ethyl}sulfanyl)-1,2,5-oxadiazole-3-carboximidamide]
6.08	7.03	6.61	6.81	CC(=O)N[C@H](CO)CSc1nonc1/C(=N/O)Nc1ccc(F)c(Br)c1 [Example 173, N-[(1R)-2-({4-[N-(3-bromo-4-fluorophenyl)-N′-hydroxycarbamimidoyl]-1,2,5-oxadiazol-3-yl}sulfanyl)-1-(hydroxymethyl)ethyl]acetamide]
5.76	6.90	6.65	6.55	O=C(CSc1nonc1/C(=N/O)Nc1ccc(F)c(Br)c1)NC[C@H](O)CO [Example 175, 2-({4-[N-(3-bromo-4-fluorophenyl)-N′-hydroxycarbamimidoyl]-1,2,5-oxadiaxol-3-yl}sulfanyl)-N-[(2S)-2,3-dihydroxypropyl]acetamide]
5.97	7.22	7.24	7.45	N#Cc1cc(N/C(=N\O)c2nonc2SCCNS(=O)(=O)C2CC2)ccc1F [Example 178, N-(3-cyano-4-fluorophenyl)-4-({2-[(cyclopropylsulfonyl)amino]ethyl}sulfanyl)-N′-hydroxy-1,2,5-oxadiazole-3-carboximidamide]
5.49	6.92	6.58	6.86	N#Cc1cc(N/C(=N\O)c2nonc2SCCNS(N)(=O)=O)ccc1F [Example 181, N-(3-cyano-4-fluorophenyl)-N′-hydroxy-4-{[2-(sulfamoylamino)ethyl]sulfanyl}-1,2,5-oxadiazole-3-carboximidamide]
6.28	6.87	6.49	6.73	N#Cc1cc(N/C(=N\O)c2nonc2SCCNC(=O)CO)ccc1F [Example 182, N-[2-({4-[N-(3-cyano-4-fluorophenyl)-N′-hydroxycarbamimidoyl]-1,2,5-oxadiazol-3-yl}sulfanyl)ethyl]-2-hydroxyacetamide]
6.40	7.06	6.78	7.18	CNC(=O)CSc1nonc1/C(=N/O)Nc1ccc(F)c(C#N)c1 [Example 185, 2-({4-[N-(3-cyano-4-fluorophenyl)-N′-hydroxycarbamimidoyl]-1,2,5-oxadiazol-3-yl}sulfanyl)-N-methylacetamide]
6.04	7.36	7.65	8.00	O/N=C(\Nc1ccc(F)c(Br)c1)c1nonc1SCc1nnc[nH]1 [Example 191, N-(3-bromo-4-fluorophenyl)-N′-hydroxy-4-[(4H-1,2,4-triazol-3-ylmethyl)sulfanyl]-1,2,5-oxadiazole-3-carboximidamide]
